Data: US20240150365A1 (Hotspot Therapeutics, Inc., priority 2022, published 2024)
pIC50: −log10 of the molar value.

Tests used:
MALT1 = target: T1, MALT1 (Homo sapiens, UniProt Q9UDY8); test: MALT-1 Fluorogenic Peptide Cleavage Assay (MALT1 inhibition assay); assay type: biochemical; settings: Avi-tagged FL MALT-1, Ac-LRSR-AMC peptide substrate, 30 min pre-incubation, 90 min reaction
T1 construct: Avi-tagged FL MALT-1 (Pharmaron, stored at −70° C.); Avi tag
T1 sequence (Q9UDY8 1-824): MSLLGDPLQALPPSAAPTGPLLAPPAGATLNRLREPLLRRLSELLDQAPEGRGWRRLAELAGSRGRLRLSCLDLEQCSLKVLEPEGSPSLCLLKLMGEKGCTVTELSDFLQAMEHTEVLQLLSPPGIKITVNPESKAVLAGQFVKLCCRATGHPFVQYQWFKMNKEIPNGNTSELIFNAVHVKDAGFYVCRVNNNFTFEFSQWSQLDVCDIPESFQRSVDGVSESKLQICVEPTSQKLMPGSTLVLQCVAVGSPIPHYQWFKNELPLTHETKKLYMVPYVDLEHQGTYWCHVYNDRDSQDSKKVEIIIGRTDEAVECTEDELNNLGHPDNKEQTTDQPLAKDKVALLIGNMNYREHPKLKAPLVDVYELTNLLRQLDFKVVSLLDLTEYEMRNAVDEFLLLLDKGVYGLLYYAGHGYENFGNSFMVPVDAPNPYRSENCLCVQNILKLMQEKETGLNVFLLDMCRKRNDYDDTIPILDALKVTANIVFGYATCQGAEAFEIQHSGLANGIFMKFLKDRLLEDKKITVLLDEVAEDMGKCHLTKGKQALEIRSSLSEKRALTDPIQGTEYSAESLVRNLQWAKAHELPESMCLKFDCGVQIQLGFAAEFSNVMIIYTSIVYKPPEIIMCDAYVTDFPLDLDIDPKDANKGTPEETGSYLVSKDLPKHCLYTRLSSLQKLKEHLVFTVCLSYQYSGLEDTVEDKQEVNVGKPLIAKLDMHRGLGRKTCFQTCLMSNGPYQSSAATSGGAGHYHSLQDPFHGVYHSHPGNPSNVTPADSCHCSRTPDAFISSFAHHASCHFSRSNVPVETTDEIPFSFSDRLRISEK
Procedure, shortened: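 IC50 from sigmoidal fits of % inhibition, with fluorescence (ex 342, em 441 nm) from AMC released from the quenched LRSR peptide after 90 min at room temperature. Full-length Avi-tagged MALT1 saw compound for 30 min first; final DMSO 2%.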

NF-kB = NF-kB reporter assay in Jurkat cells stimulated with aCD3/aCD28/PMA; assay type: cell-based; settings: Homo sapiens, Jurkat, Jurkat cells, 1 hr compound incubation, aCD3/aCD28/PMA stimulation 4 hr, One-Glo readout; read-out: NF-kB Reporter Assay IC50
Procedure, shortened: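 Stimulation used final aCD3 5 μg/mL, aCD28 5 μg/mL and PMA 0.03 μg/mL for 4 hr at 37° C, after 1 hr compound pretreatment of 25,000 serum-starved Jurkat cells per well. One-Glo luminescence gave IC50 values.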

pIC50 (MALT1) | pIC50 (NF-kB) | Compound
5.60 to 6.00 | > 6.40 | Cn1ncc2cccc(NS(=O)(=O)c3ccc(-n4ccc(C5CC5)n4)nc3)c21 [Example I-207, 6-(3-Cyclopropyl-1H-Pyrazol-1-yl)-N-(1-Methyl-1H-Indazol-7-yl)Pyridine-3-Sulfonamide]
5.60 to 6.00 | > 6.40 | Cn1ncc2cccc(NS(=O)(=O)c3ccc(-n4cc(C5CC5)cn4)nc3)c21 [Example I-208, 6-(4-Cyclopropyl-1H-Pyrazol-1-yl)-N-(1-Methyl-1H-Indazol-7-yl)Pyridine-3-Sulfonamide]
< 5.60 | > 6.40 | Cn1ccn(-c2ccc(S(=O)(=O)Nc3cccc4cnn(C)c34)cn2)c1=O [Example I-209, N-(1-Methyl-1H-Indazol-7-yl)-6-(3-Methyl-2-Oxo-2,3-Dihydro-1H-Imidazol-1-yl)Pyridine-3-Sulfonamide]
< 5.60 | > 6.40 | COc1ccc(-c2ccc(S(=O)(=O)Nc3cccc4cnn(C)c34)cn2)cn1 [Example I-210, 6′-Methoxy-N-(1-Methyl-1H-Indazol-7-yl)-[2,3′-Bipyridine]-5-Sulfonamide]
> 6.40 | > 6.40 | [2H]C([2H])([2H])Oc1ccc2cnn(C)c2c1NS(=O)(=O)c1ccc(-n2cc(Cl)cn2)nc1 [Example I-213, 6-(4-Chloro-1H-Pyrazol-1-yl)-N-(6-(Methoxy-D3)-1-Methyl-1H-Indazol-7-yl)Pyridine-3-Sulfonamide]
6.00 to 6.40 | > 6.40 | Cn1ncc2cccc(NS(=O)(=O)c3ccc(-c4cnc(C(F)(F)F)s4)nc3)c21 [Example I-214, N-(1-Methyl-1H-Indazol-7-yl)-6-(2-(Trifluoromethyl)Thiazol-5-yl)Pyridine-3-Sulfonamide]
< 5.60 | < 5.60 | COCCn1ncc2cccc(NS(=O)(=O)c3ccc(-n4ccc(C(C)C)n4)nc3)c21 [Example I-215, 6-(3-isopropyl-1H-pyrazol-1-yl)-N-(1-(2-methoxyethyl)-1H-indazol-7-yl)pyridine-3-sulfonamide]
< 5.60 | < 5.60 | COCCn1ncc2cccc(NS(=O)(=O)c3ccc(-n4nccc4C4CC4)nc3)c21 [Example I-216, 6-(5-Cyclopropyl-1H-Pyrazol-1-yl)-N-(1-(2-Methoxyethyl)-1H-Indazol-7-yl)Pyridine-3-Sulfonamide]
< 5.60 | < 5.60 | COCCn1ncc2cccc(NS(=O)(=O)c3ccc(-n4cc(C)cn4)nc3)c21 [Example I-217, N-(1-(2-Methoxyethyl)-1H-Indazol-7-yl)-6-(4-Methyl-1H-Pyrazol-1-yl)Pyridine-3-Sulfonamide]
< 5.60 | > 6.40 | Cn1ncc2cccc(NS(=O)(=O)c3ccc(-c4ccc(Cl)nc4)nc3)c21 [Example I-219, 6′-Chloro-N-(1-Methyl-1H-Indazol-7-yl)-[2,3′-Bipyridine]-5-Sulfonamide]

The next lines start with the compound.

Compound | pIC50 (MALT1) | pIC50 (NF-kB)
COc1ncc2cnn(C)c2c1N(C)S(=O)(=O)c1ccc(-n2ccc(C(F)(F)F)n2)nc1 [Example I-195, N-(6-Methoxy-1-Methyl-1H-Pyrazolo[4,3-C]Pyridin-7-yl)-N-Methyl-6-(3-(Trifluoromethyl)-1H-Pyrazol-1-yl)Pyridine-3-Sulfonamide] | > 6.40 | > 6.40
COc1ncc2cnn(C)c2c1NS(=O)(=O)c1ccc(-n2ccc(C)n2)nc1 [Example I-197, N-{6-methoxy-1-methylpyrazolo[4,3-c]pyridin-7-yl}-6-(3-methylpyrazol-1-yl)pyridine-3-sulfonamide] | > 6.40 | > 6.40
Cn1[nH]c(=O)c2c(NS(=O)(=O)c3ccc(-n4cc(C(F)(F)F)cn4)nc3)cccc21 [Example I-198, N-(1-methyl-3-oxo-2,3-dihydro-1H-indazol-4-yl)-6-(4-(trifluoromethyl)-1H-pyrazol-1-yl)pyridine-3-sulfonamide] | < 5.60 | 5.60 to 6.00
Cc1ncc2cccc(NS(=O)(=O)c3ccc(-n4cc(C(F)(F)F)cn4)nc3)n12 [Example I-199, N-(3-methylimidazo[1,5-a]pyridin-5-yl)-6-(4-(trifluoromethyl)-1H-pyrazol-1-yl)pyridine-3-sulfonamide] | < 5.60 | 5.60 to 6.00
COc1ncc2cnn(C)c2c1NS(=O)(=O)c1ccc(-c2cc(C(F)(F)F)n[nH]2)nc1 [Example I-200, N-(6-Methoxy-1-Methyl-1H-Pyrazolo[4,3-C]Pyridin-7-yl)-6-(3-(Trifluoromethyl)-1H-Pyrazol-5-yl)Pyridine-3-Sulfonamide] | > 6.40 | > 6.40
Cn1[nH]c(=O)c2cccc(NS(=O)(=O)c3ccc(-n4cc(C(F)(F)F)cn4)nc3)c21 [Example I-201, N-(1-Methyl-3-Oxo-2,3-Dihydro-1H-Indazol-7-yl)-6-(4-(Trifluoromethyl)-1H-Pyrazol-1-yl)Pyridine-3-Sulfonamide] | < 5.60 | < 5.60
COc1ccc2cnn(C)c2c1NS(=O)(=O)c1ccc(-n2cc(C)n(C)c2=O)nc1 [Example I-202, 6-(3,4-Dimethyl-2-Oxo-2,3-Dihydro-1H-Imidazol-1-yl)-N-(6-Methoxy-1-Methyl-1H-Indazol-7-yl)Pyridine-3-Sulfonamide] | 6.00 to 6.40 | > 6.40
COc1ccc(Cc2ccc3c(c2N)c(=O)n(S(=O)(=O)c2ccc(-n4cc(C(F)(F)F)cn4)nc2)n3C)cc1 [Example I-203] | < 5.60 | > 6.40
COc1ncc2cnn(C)c2c1NS(=O)(=O)c1ccc(-c2cc(C(F)F)n[nH]2)nc1 [Example I-204, 6-(3-(Difluoromethyl)-1H-Pyrazol-5-yl)-N-(6-Methoxy-1-Methyl-1H-Pyrazolo[4,3-C]Pyridin-7-yl)Pyridine-3-Sulfonamide] | > 6.40 | 5.60 to 6.00
COc1ncc2cnn(C)c2c1NS(=O)(=O)c1ccc(-c2cc(C3CC3)n[nH]2)nc1 [Example I-205, 6-(3-Cyclopropyl-1H-Pyrazol-5-yl)-N-(6-Methoxy-1-Methyl-1H-Pyrazolo[4,3-C]Pyridin-7-yl)Pyridine-3-Sulfonamide] | 5.60 to 6.00 | 5.60 to 6.00
[2H]C([2H])([2H])n1ncc2ccc(OC)c(NS(=O)(=O)c3ccc(-n4cc(C)cn4)nc3)c21 [Example I-206, N-(6-Methoxy-1-(Methyl-D3)-1H-Indazol-7-yl)-6-(4-Methyl-1H-Pyrazol-1-yl)Pyridine-3-Sulfonamide] | > 6.40 | > 6.40
COc1ncc2cnn(C)c2c1NS(=O)(=O)c1ccc(-n2nccc2C(F)(F)F)nc1 [Example I-211, N-(6-Methoxy-1-Methyl-1H-Pyrazolo[4,3-C]Pyridin-7-yl)-6-(5-(Trifluoromethyl)-1H-Pyrazol-1-yl)Pyridine-3-Sulfonamide] | < 5.60 | 6.00 to 6.40
[2H]C([2H])([2H])n1ncc2ccc(OC)c(NS(=O)(=O)c3ccc(-n4cc(Cl)cn4)nc3)c21 [Example I-212, 6-(4-Chloro-1H-Pyrazol-1-yl)-N-(6-Methoxy-1-(Methyl-D3)-1H-Indazol-7-yl)Pyridine-3-Sulfonamide] | > 6.40 | > 6.40
COCCn1ncc2cccc(NS(=O)(=O)c3ccc(-c4cnn(C)c4C)nc3)c21 [Example I-218, 6-(1,5-Dimethyl-1H-Pyrazol-4-yl)-N-(1-(2-Methoxyethyl)-1H-Indazol-7-yl)Pyridine-3-Sulfonamide] | < 5.60 | < 5.60
